Source: patent US12590071B2, “Hydrazone derivative in which terminal amine group is substituted with aryl group or heteroaryl group, and use thereof” (KOREA INSTITUTE OF SCIENCE AND TECHNOLOGY, priority 2018, dated 2026)

Key:
[1] = molecular target: T1, tau protein (Homo sapiens, UniProt P10636); assay: Tau protein aggregation inhibition in tau-BiFC cell model; assay type: cell-based; conditions: tau-BiFC cells treated together with Forskolin, 48 hours
T1 construct: expressed in transfected cells
Method in brief: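 Tau-BiFC cells co-treated 48 h with Forskolin ([…]) and compound at 0.03–30 μM. BiFC fluorescence quantified by imaging, IC50 by nonlinear regression; cytotoxicity as Hoechst-stained nuclei count relative to Forskolin-only wells (100% survival).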

[2] = molecular target: T2, CYP1A2 (Homo sapiens, UniProt P05177); assay: Inhibition of CYP coenzyme activity in human liver microsomes; assay type: in vitro ADME; conditions: compound 10 PM (so in the source); human liver microsomes 0.25 mg/mL; substrate phenacetin; 15 minutes
T2 construct: human liver microsomes (0.25 mg/mL); from tissue; host or cells: human liver microsomes
T2 sequence (P05177 1-516): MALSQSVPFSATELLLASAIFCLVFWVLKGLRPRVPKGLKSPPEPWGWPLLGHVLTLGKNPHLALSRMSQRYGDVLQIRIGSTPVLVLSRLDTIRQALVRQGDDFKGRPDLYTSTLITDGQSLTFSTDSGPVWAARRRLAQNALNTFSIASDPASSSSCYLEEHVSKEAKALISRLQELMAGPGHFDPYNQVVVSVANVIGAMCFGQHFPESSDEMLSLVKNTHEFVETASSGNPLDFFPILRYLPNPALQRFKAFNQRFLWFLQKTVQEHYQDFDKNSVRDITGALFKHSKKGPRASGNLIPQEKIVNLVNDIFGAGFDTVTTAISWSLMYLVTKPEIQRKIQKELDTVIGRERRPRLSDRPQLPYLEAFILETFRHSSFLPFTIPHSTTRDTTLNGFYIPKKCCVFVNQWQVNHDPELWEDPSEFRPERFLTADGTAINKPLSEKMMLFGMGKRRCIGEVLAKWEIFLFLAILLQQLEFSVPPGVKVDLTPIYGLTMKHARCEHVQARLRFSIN
Method in brief: (§1)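 Human liver microsomes (0.25 mg/mL) in 0.1 M phosphate pH 7.4 with a substrate cocktail (phenacetin 50 μM, diclofenac 10 μM, S-mephenytoin 100 μM, dextromethorphan 5 μM, midazolam 2.5 μM) and compound at 0 or 10 μM. Preincubated 5 min at 37 °C, then 15 min with NADPH system. Metabolites quantified by LC-MS/MS (MRM).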

[3] = molecular target: T3, CYP3A4 (Homo sapiens, UniProt P08684); assay: as above; assay type: in vitro ADME; parameters: scale not given here; conditions: compound 10 PM (so in the source); human liver microsomes 0.25 mg/mL; substrate midazolam; 15 minutes
T3 construct: human liver microsomes (0.25 mg/mL); from tissue; host or cells: human liver microsomes
Method in brief: as §1

[4] = Liver microsomal stability (dog); assay type: in vitro ADME; conditions: amount of substrate remaining; 1 μM, 0.25 mg/mL microsomes, 37° C., 30 minutes
Method in brief: (§2)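 Compound at 1 μM with microsomes (0.25 mg/mL each species) in 0.1 M phosphate buffer pH 7.4, preincubated 5 min at 37 °C, then 30 min at 37 °C after NADPH-generating system addition. Quenched with acetonitrile plus internal standard; remaining substrate measured by LC-MS/MS.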

[5] = Liver microsomal stability (rat); assay type: in vitro ADME; conditions: amount of substrate remaining; 1 μM, 0.25 mg/mL microsomes, 37° C., 30 minutes
Method in brief: as §2

T1 sequence (P10636 2-441 isoform P10636-8 limits assumed): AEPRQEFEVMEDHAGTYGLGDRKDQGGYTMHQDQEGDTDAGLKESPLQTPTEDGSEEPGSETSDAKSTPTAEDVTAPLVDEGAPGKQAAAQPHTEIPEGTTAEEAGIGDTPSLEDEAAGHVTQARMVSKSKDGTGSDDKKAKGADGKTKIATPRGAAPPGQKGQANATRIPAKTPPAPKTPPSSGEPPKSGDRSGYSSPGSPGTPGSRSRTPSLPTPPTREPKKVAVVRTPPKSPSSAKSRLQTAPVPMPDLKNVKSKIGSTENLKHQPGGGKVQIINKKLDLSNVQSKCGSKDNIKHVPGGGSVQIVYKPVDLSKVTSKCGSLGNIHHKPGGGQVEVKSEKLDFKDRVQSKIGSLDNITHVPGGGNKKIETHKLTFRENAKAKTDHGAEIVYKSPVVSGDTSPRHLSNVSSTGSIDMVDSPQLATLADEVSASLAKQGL
T3 sequence (P08684 whole entry): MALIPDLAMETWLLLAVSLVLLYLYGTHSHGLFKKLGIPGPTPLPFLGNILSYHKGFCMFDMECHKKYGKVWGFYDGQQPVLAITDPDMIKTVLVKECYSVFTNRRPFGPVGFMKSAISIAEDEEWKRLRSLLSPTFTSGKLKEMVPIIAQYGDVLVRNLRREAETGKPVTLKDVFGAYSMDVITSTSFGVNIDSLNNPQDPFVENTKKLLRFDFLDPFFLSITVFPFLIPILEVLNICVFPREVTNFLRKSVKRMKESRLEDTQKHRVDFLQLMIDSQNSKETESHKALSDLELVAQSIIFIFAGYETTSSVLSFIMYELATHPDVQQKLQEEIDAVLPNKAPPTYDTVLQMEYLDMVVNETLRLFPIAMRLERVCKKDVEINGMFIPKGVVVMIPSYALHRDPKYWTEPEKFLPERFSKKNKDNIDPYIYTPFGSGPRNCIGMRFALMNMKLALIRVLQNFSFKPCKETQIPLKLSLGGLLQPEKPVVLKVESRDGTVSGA

Structure (SMILES)	IC50 [1] [nM]	inhibition effects of CYP coenzyme activity, CYP1A2 [2]	inhibition effects of CYP coenzyme activity, CYP3A4 [3]	liver microsomal stability, Dog (%) [4] [%]	liver microsomal stability, Rat (%) [5] [%]
N#CC(C#N)=NNc1ccc(-c2cnc3ccnn3c2)cc1 [Compound 50, (4-(pyrazolo[1,5-a]pyrimidin-6-yl)phenyl)carbonohydrazonoyl dicyanide]	730	80.7	95	88.9	85.7
N#CC(C#N)=NNc1ccc(-c2ncc(F)cn2)cc1 [Compound 2, (4-(5-fluoropyrimidin-2-yl)phenyl)carbonohydrazonoyl dicyanide]	1300	84.3	>100	92.1	97.2
N#CC(C#N)=NNc1ccc(-c2ncccn2)cc1 [Compound 1, (4-(pyrimidin-2-yl)phenyl)carbonohydrazonoyl dicyanide]	490	76.9	89.4	5.7	28.3
Cc1ncc(-c2ccc(NN=C(C#N)C#N)cc2)s1 [Compound 11, (4-(2-methylthiazol-5-yl)phenyl)carbonohydrazonoyl dicyanide]	50	80.1	97.6	79.6	49.6
Cc1cnc(C(=O)Nc2nc3ccc(NN=C(C#N)C#N)cc3s2)cn1 [Compound 93, (2-(5-methylpyrazine-2-carboxamido)benzo[d]thiazol-6-yl)carbonohydrazonoyl dicyanide]	60	80.7	91.5	60.4	63.3
